# Data reported in patent US20260232767A1, “INTERLEUKIN-23 RECEPTOR ANTAGONIST PEPTIDES FOR USE IN THE TREATMENT OF PSORIASIS” (Janssen Pharmaceutica NV, priority 2023, published 2026).
# System: subjects with moderate-to-severe plaque psoriasis
# Experiment: Hematology and chemistry laboratory values by CTCAE grade
# Assay type: in vivo, human
# Details: through Week 56
# From the text: The proportion of participants who discontinued study intervention due to one or more AEs was low (n=4). All events were singular in nature with no apparent dose-dependent increase (Table 48 and Table 52). The number of participants with abnormal hematology and chemistry laboratory values with CTCAE toxicity grade≥3 were low through the end of the study (Table 43 through Table 46). There was no apparent dose-dependent increase in laboratory abnormality occurrences.
structure (smiles),measurement,setting,value
"CC(=O)NCCCC[C@@H]1NC(=O)[C@H](Cc2c[nH]c3c(C)cccc23)NC(=O)[C@H]([C@@H](C)O)NC(=O)[C@H](CC(N)=O)NC(=O)[C@@H](NC(C)=O)C(C)(C)SSC(C)(C)[C@@H](C(=O)N[C@@H](Cc2ccc(OCCN)cc2)C(=O)N[C@@H](Cc2ccc3ccccc3c2)C(=O)NC2(C(=O)N[C@@H](CCC(=O)O)C(=O)N[C@@H](CC(N)=O)C(=O)N[C@@H](Cc3cccnc3)C(=O)N(C)CC(N)=O)CCOCC2)NC1=O [IL-23 receptor antagonist peptide, Ac-[Pen]*-N-T-[W(7-Me)]-[Lys(Ac)]-[Pen]*-Phe[4-(2-aminoethoxy)]-[2-Nal]-[THP]-E-N-[3-Pal]-Sarc-NH2 (*[Pen]-[Pen]* formdisulfidebond)]",Creatinine (increased): Subjects with Grade 3,100 mg BID,0
same,Creatinine (increased): Subjects with Grade 4,100 mg BID,0
same,Gamma Glutamyl Transferase (increased): Subjects with Grade 2,100 mg BID,0
same,Gamma Glutamyl Transferase (increased): Subjects with Grade 3,100 mg BID,0
same,Gamma Glutamyl Transferase (increased): Subjects with Grade 4,100 mg BID,0
same,Glucose (decreased): Subjects with Grade 2,100 mg BID,0
same,Glucose (decreased): Subjects with Grade 3,100 mg BID,0
same,Glucose (decreased): Subjects with Grade 4,100 mg BID,0
same,Hemoglobin (g/L) (decreased): subjects with Grade 2,100 mg BID,0
same,Hemoglobin (g/L) (decreased): subjects with Grade 3,100 mg BID,0
same,Hemoglobin (g/L) (decreased): subjects with Grade 4,100 mg BID,0
same,Hemoglobin (g/L) (increased): subjects with Grade 2,100 mg BID,0
same,Hemoglobin (g/L) (increased): subjects with Grade 3,100 mg BID,0
same,Hemoglobin (g/L) (increased): subjects with Grade 4,100 mg BID,0
same,Lymphocytes (×10^9/L) (decreased): subjects with Grade 2,100 mg BID,0
same,Lymphocytes (×10^9/L) (decreased): subjects with Grade 3,100 mg BID,0
same,Lymphocytes (×10^9/L) (decreased): subjects with Grade 4,100 mg BID,0
same,Lymphocytes (×10^9/L) (increased): subjects with Grade 1,100 mg BID,0
same,Lymphocytes (×10^9/L) (increased): subjects with Grade 2,100 mg BID,0
same,Lymphocytes (×10^9/L) (increased): subjects with Grade 3,100 mg BID,0
same,Lymphocytes (×10^9/L) (increased): subjects with Grade 4,100 mg BID,0
same,Lymphocytes (×10^9/L) (increased): subjects with postbaseline maximum toxicity grade >0,100 mg BID,0
same,Magnesium (decreased): Subjects with Grade 1,100 mg BID,0
same,Magnesium (decreased): Subjects with Grade 2,100 mg BID,0
same,Magnesium (decreased): Subjects with Grade 3,100 mg BID,0
same,Magnesium (decreased): Subjects with Grade 4,100 mg BID,0
same,Magnesium (decreased): Subjects with postbaseline maximum toxicity grade >0,100 mg BID,0
same,Magnesium (increased): Subjects with Grade 2,100 mg BID,0
same,Magnesium (increased): Subjects with Grade 3,100 mg BID,0
same,Magnesium (increased): Subjects with Grade 4,100 mg BID,0
same,Neutrophils (×10^9/L) (decreased): subjects with Grade 3,100 mg BID,0
same,Neutrophils (×10^9/L) (decreased): subjects with Grade 4,100 mg BID,0
same,Platelets (×10^9/L) (decreased): subjects with Grade 2,100 mg BID,0
same,Platelets (×10^9/L) (decreased): subjects with Grade 3,100 mg BID,0
same,Platelets (×10^9/L) (decreased): subjects with Grade 4,100 mg BID,0
same,Potassium (decreased): Subjects with Grade 1,100 mg BID,0
same,Potassium (decreased): Subjects with Grade 2,100 mg BID,0
same,Potassium (decreased): Subjects with Grade 3,100 mg BID,0
same,Potassium (decreased): Subjects with Grade 4,100 mg BID,0
same,Potassium (decreased): Subjects with postbaseline maximum toxicity grade >0,100 mg BID,0
same,Potassium (increased): Subjects with Grade 1,100 mg BID,5
same,Potassium (increased): Subjects with Grade 2,100 mg BID,0
same,Potassium (increased): Subjects with Grade 3,100 mg BID,0
same,Potassium (increased): Subjects with Grade 4,100 mg BID,0
same,Potassium (increased): Subjects with postbaseline maximum toxicity grade >0,100 mg BID,5
same,Sodium (decreased): Subjects with Grade 1,100 mg BID,0
same,Sodium (decreased): Subjects with Grade 2,100 mg BID,0
same,Sodium (decreased): Subjects with Grade 3,100 mg BID,0
same,Sodium (decreased): Subjects with Grade 4,100 mg BID,0
same,Sodium (decreased): Subjects with postbaseline maximum toxicity grade >0,100 mg BID,0
same,Sodium (increased): Subjects with Grade 2,100 mg BID,0
same,Sodium (increased): Subjects with Grade 3,100 mg BID,0
same,Sodium (increased): Subjects with Grade 4,100 mg BID,0
same,Total Bilirubin (increased): Subjects with Grade 2,100 mg BID,0
same,Total Bilirubin (increased): Subjects with Grade 3,100 mg BID,0
same,Total Bilirubin (increased): Subjects with Grade 4,100 mg BID,0
same,Triglycerides (increased): Subjects with Grade 4,100 mg BID,0
same,WBC (×10^9/L) (decreased): subjects with Grade 2,100 mg BID,0
same,WBC (×10^9/L) (decreased): subjects with Grade 3,100 mg BID,0
same,WBC (×10^9/L) (decreased): subjects with Grade 4,100 mg BID,0
same,WBC (×10^9/L) (increased): subjects with Grade 1,100 mg BID,0
same,WBC (×10^9/L) (increased): subjects with Grade 2,100 mg BID,0
same,WBC (×10^9/L) (increased): subjects with Grade 3,100 mg BID,0
same,WBC (×10^9/L) (increased): subjects with Grade 4,100 mg BID,0
same,WBC (×10^9/L) (increased): subjects with postbaseline maximum toxicity grade >0,100 mg BID,0
same,Alanine Aminotransferase (increased): Subjects with Grade 1,100 mg QD,12
same,Alanine Aminotransferase (increased): Subjects with Grade 3,100 mg QD,0
same,Alanine Aminotransferase (increased): Subjects with Grade 4,100 mg QD,0
same,Albumin (decreased): Subjects with Grade 1,100 mg QD,0
same,Albumin (decreased): Subjects with Grade 2,100 mg QD,0
same,Albumin (decreased): Subjects with Grade 3,100 mg QD,0
same,Albumin (decreased): Subjects with Grade 4,100 mg QD,0
same,Albumin (decreased): Subjects with postbaseline maximum toxicity grade >0,100 mg QD,0
same,Alkaline Phosphatase (increased): Subjects with Grade 2,100 mg QD,0
same,Alkaline Phosphatase (increased): Subjects with Grade 3,100 mg QD,0
same,Alkaline Phosphatase (increased): Subjects with Grade 4,100 mg QD,0
same,Aspartate Aminotransferase (increased): Subjects with Grade 1,100 mg QD,9
same,Aspartate Aminotransferase (increased): Subjects with Grade 3,100 mg QD,0
same,Aspartate Aminotransferase (increased): Subjects with Grade 4,100 mg QD,0
same,Aspartate Aminotransferase (increased): Subjects with postbaseline maximum toxicity grade >0,100 mg QD,10
same,Calcium corrected (decreased): Subjects with Grade 2,100 mg QD,0
same,Calcium corrected (decreased): Subjects with Grade 3,100 mg QD,0
same,Calcium corrected (decreased): Subjects with Grade 4,100 mg QD,0
same,Calcium corrected (increased): Subjects with Grade 2,100 mg QD,0
same,Calcium corrected (increased): Subjects with Grade 3,100 mg QD,0
same,Calcium corrected (increased): Subjects with Grade 4,100 mg QD,0
same,Cholesterol (increased): Subjects with Grade 1,100 mg QD,0
same,Cholesterol (increased): Subjects with Grade 3,100 mg QD,0
same,Cholesterol (increased): Subjects with Grade 4,100 mg QD,0
same,Creatine Kinase (increased): Subjects with Grade 2,100 mg QD,0
same,Creatine Kinase (increased): Subjects with Grade 3,100 mg QD,0
same,Creatinine (increased): Subjects with Grade 2,100 mg QD,0
same,Creatinine (increased): Subjects with Grade 3,100 mg QD,0
same,Creatinine (increased): Subjects with Grade 4,100 mg QD,0
same,Gamma Glutamyl Transferase (increased): Subjects with Grade 1,100 mg QD,5
same,Gamma Glutamyl Transferase (increased): Subjects with Grade 2,100 mg QD,0
same,Gamma Glutamyl Transferase (increased): Subjects with Grade 3,100 mg QD,0
same,Gamma Glutamyl Transferase (increased): Subjects with Grade 4,100 mg QD,0
same,Gamma Glutamyl Transferase (increased): Subjects with postbaseline maximum toxicity grade >0,100 mg QD,5
same,Glucose (decreased): Subjects with Grade 3,100 mg QD,0
same,Glucose (decreased): Subjects with Grade 4,100 mg QD,0
same,Hemoglobin (g/L) (decreased): subjects with Grade 2,100 mg QD,0
same,Hemoglobin (g/L) (decreased): subjects with Grade 3,100 mg QD,0
same,Hemoglobin (g/L) (decreased): subjects with Grade 4,100 mg QD,0
same,Hemoglobin (g/L) (increased): subjects with Grade 1,100 mg QD,0
same,Hemoglobin (g/L) (increased): subjects with Grade 2,100 mg QD,0
same,Hemoglobin (g/L) (increased): subjects with Grade 3,100 mg QD,0
same,Hemoglobin (g/L) (increased): subjects with Grade 4,100 mg QD,0
same,Hemoglobin (g/L) (increased): subjects with postbaseline maximum toxicity grade >0,100 mg QD,0
same,Lymphocytes (×10^9/L) (decreased): subjects with Grade 3,100 mg QD,0
same,Lymphocytes (×10^9/L) (decreased): subjects with Grade 4,100 mg QD,0
same,Lymphocytes (×10^9/L) (increased): subjects with Grade 1,100 mg QD,0
same,Lymphocytes (×10^9/L) (increased): subjects with Grade 3,100 mg QD,0
same,Lymphocytes (×10^9/L) (increased): subjects with Grade 4,100 mg QD,0
same,Magnesium (decreased): Subjects with Grade 2,100 mg QD,0
same,Magnesium (decreased): Subjects with Grade 3,100 mg QD,0
same,Magnesium (decreased): Subjects with Grade 4,100 mg QD,0
same,Magnesium (increased): Subjects with Grade 2,100 mg QD,0
same,Magnesium (increased): Subjects with Grade 3,100 mg QD,0
same,Magnesium (increased): Subjects with Grade 4,100 mg QD,0
same,Neutrophils (×10^9/L) (decreased): subjects with Grade 3,100 mg QD,0
same,Neutrophils (×10^9/L) (decreased): subjects with Grade 4,100 mg QD,0
same,Platelets (×10^9/L) (decreased): subjects with Grade 2,100 mg QD,0
same,Platelets (×10^9/L) (decreased): subjects with Grade 3,100 mg QD,0
same,Platelets (×10^9/L) (decreased): subjects with Grade 4,100 mg QD,0
same,Potassium (decreased): Subjects with Grade 1,100 mg QD,0
same,Potassium (decreased): Subjects with Grade 3,100 mg QD,0
same,Potassium (decreased): Subjects with Grade 4,100 mg QD,0
same,Potassium (increased): Subjects with Grade 1,100 mg QD,0
same,Potassium (increased): Subjects with Grade 3,100 mg QD,0
same,Potassium (increased): Subjects with Grade 4,100 mg QD,0
same,Sodium (decreased): Subjects with Grade 1,100 mg QD,0
same,Sodium (decreased): Subjects with Grade 2,100 mg QD,0
same,Sodium (decreased): Subjects with Grade 3,100 mg QD,0
same,Sodium (decreased): Subjects with Grade 4,100 mg QD,0
same,Sodium (decreased): Subjects with postbaseline maximum toxicity grade >0,100 mg QD,0
same,Sodium (increased): Subjects with Grade 2,100 mg QD,0
same,Sodium (increased): Subjects with Grade 3,100 mg QD,0
same,Sodium (increased): Subjects with Grade 4,100 mg QD,0
same,Total Bilirubin (increased): Subjects with Grade 1,100 mg QD,7
same,Total Bilirubin (increased): Subjects with Grade 2,100 mg QD,0
same,Total Bilirubin (increased): Subjects with Grade 3,100 mg QD,0
same,Total Bilirubin (increased): Subjects with Grade 4,100 mg QD,0
same,Total Bilirubin (increased): Subjects with postbaseline maximum toxicity grade >0,100 mg QD,7
same,Triglycerides (increased): Subjects with Grade 3,100 mg QD,0
same,Triglycerides (increased): Subjects with Grade 4,100 mg QD,0
same,Triglycerides (increased): Subjects with postbaseline maximum toxicity grade >0,100 mg QD,5
same,WBC (×10^9/L) (decreased): subjects with Grade 3,100 mg QD,0
same,WBC (×10^9/L) (decreased): subjects with Grade 4,100 mg QD,0
same,WBC (×10^9/L) (decreased): subjects with postbaseline maximum toxicity grade >0,100 mg QD,5
same,WBC (×10^9/L) (increased): subjects with Grade 1,100 mg QD,0
